Usually Ki stands for a dissociation constant, usually derived from enzyme kinetics or from competition with a known ligand.

The values below come from patent US6656911B2, “Serine protease inhibitors” (Cortech, Inc., priority 1994, dated 2003).

In series [1] the target is T1, human neutrophil elastase (HNE) (Homo sapiens, UniProt P08246).
T1 sequence (P08246 30-267): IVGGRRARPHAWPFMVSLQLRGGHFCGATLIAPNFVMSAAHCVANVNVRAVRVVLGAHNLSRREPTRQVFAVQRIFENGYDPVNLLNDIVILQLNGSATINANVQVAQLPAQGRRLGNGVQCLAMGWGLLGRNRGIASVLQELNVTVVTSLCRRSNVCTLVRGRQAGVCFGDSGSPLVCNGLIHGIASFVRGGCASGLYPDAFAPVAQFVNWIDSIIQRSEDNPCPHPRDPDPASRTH
The series can be described thus: HNE Ki of CE compounds, tested as described in WO 96/16080. The format is biochemical. The following applies: read-out: HNE Ki.

Series [2] in a line: Blood level screening after oral dose. The format is in vivo, Sprague-Dawley rats. Conditions: rat, oral gavage 10 mg/kg; for concentration at 3 h / concentration at 1 h: male, Sprague-Dawley, plasma; for concentration at 3 h: read-out: Plasma Levels (μM) 3 hr; for concentration at 1 h: read-out: Plasma Levels (μM) 1 hr. The procedure:
The inhibitors were dissolved or suspended in polyethylene glycol (PEG), PEG-400 or PEG:H2O:EtOH at a concentration of 10 mg/ml. Unfasted male Sprague-Dawley rats were given an oral dose of this solution by gavage. Rats received 10 mg inhibitor/kg body weight in a volume of 1 ml/kg. After 1,3 or 6 hr., the rats were killed with an overdose of urethane (2.5 g/kg; i.p.) and the blood collected in a heparinized tube via cardiac puncture. Red blood cells were separated from the plasma by centrifugation.
Depending on the inhibitor, one of four organics (ethyl acetate, toluene, isopropyl ether or methyl t-butyl ether) was used to extract the compound from the plasma. Inhibitor concentrations were measured by HPLC or LC/MS analysis.

Take `Cc1cccc(Cc2nnc(C(=O)C(NC(=O)Cn3c(=O)c(N)cc4ccccc43)C(C)C)o2)c1` (racemic) [CE2228, 3-(R,S)-Amino-quinolin-2-one-N-[1-(2-[5-(3-methylbenzyl)-1,3,4-oxadiazolyl]carbonyl)-2-(R,S)-methylpropyl]acetamide]: the Ki in series [1] was determined as 40 nM. Moreover, the “Plasma Levels (μM) 1 hr” value in series [2] (1 hr) was determined as 0.714 µM. In addition, in series [2], the “Plasma Levels (μM) 3 hr” value turned out to be 1.393 µM. Besides, in series [2] (6 hr), the “Plasma Levels (μM) 6 hr” value was 0.409 µM.

Consider `Cc1cccc(Cc2nc(C(=O)[C@@H](NC(=O)[C@@H]3CCCN3C(=O)[C@@H](NC(=O)OCc3ccccc3)C(C)C)C(C)C)no2)c1` [CE2055, (Benzyloxycarbonyl)-L-valyl-N-[1-(3-[5-(3-methylbenzyl)-1,2,4-oxadiazolyl]carbonyl)-2-(S)-methylpropyl]-L-prolinamide], for which, in series [2], the concentration at 3 h was determined as 0.002 µM.

On to `Cc1cccc(Cc2nnc(C(=O)C(NC(=O)CN3C(=O)CCc4ccccc43)C(C)C)o2)c1` (stereo not shown) [CE2088, 3,4-Dihydro-quinoline-2-one-N-[1-(2-[5-(3-methylbenzyl)-1,3,4-oxadiazolyl]carbonyl)-2-N-methylpropyl]acetamide], for which, in series [1], the Ki came to 66 nM. In series [2] (1 hr), the concentration at 1 h was found to be 0.801 µM. The concentration at 3 h in series [2] was found to be 0.755 µM.

In the case of `CC(=O)N1CC(=O)N(CC(=O)N[C@H](C(=O)c2nnc(Cc3cccc(C)c3)o2)C(C)C)C(=Cc2ccccc2)C1=O` [CE2099, 1-Acetyl-3-benzylidene piperazine-2,5-dione-N-[1-(2-[5-(3-methylbenzyl)-1,3,4-oxadiazolyl]carbonyl)-2-(S)-methylpropyl]acetamide], the inhibition constant (Ki) in series [1] came to 1.9 nM. In series [2], the concentration at 3 h worked out at 0.042 µM.

With `CC(=O)N1CC(=O)N(CC(=O)N[C@H](C(=O)c2nnc(Cc3cccc(C)c3)o2)C(C)C)C(=Cc2ccc(N(C)C)cc2)C1=O` [CE2111, 1-Acetyl-3-(4-dimethylaminobenzylidene) piperazine-2,5-dione-N-[1-(2-[5-(3-methylbenzyl)-1,3,4-oxadiazolyl]carbonyl)-2-(S)-methylpropyl]acetamide], the Ki in series [1] was 20 nM. Besides, the concentration at 3 h in series [2] was 0.69 µM.

Consider `Cc1cccc(Cc2nnc(C(=O)[C@@H](NC(=O)Cn3c(=O)c(N)cc4ccccc43)C(C)C)o2)c1` [CE2113, 3-(Amino-quinoline-2-one)-N[1-(2-[5-(3-methylbenzyl)-1,3,4-oxadiazolyl]carbonyl)-2-(S)-methylpropyl]acetamide], for which the Ki in series [1] is 39 nM. The concentration at 1 h in series [2] (1 hr) was found to be 1.83 µM. For the same molecule, in series [2], the concentration at 3 h came out at 0.909 µM.

As to `CC(C)[C@H](NC(=O)[C@@H]1Cc2ccccc2N1C(=O)[C@@H](NC(=O)OCc1ccccc1)C(C)C)C(=O)c1noc(Cc2cccc(C(F)(F)F)c2)n1` [CE2125, (Benzyloxycarbonyl)-L-valyl-2-L-(2,3-dihydro-1H-indole)-N-[1-(3-[5-(3-trifluoromethylbenzyl)-1,2,4-oxadiazolyl]carbonyl)-2-(S)-methylpropyl]amide], the Ki in series [1] was determined as 0.4 nM. In addition, the concentration at 3 h in series [2] is 0.011 µM.

Turning to `CC(C)[C@H](NC(=O)CN1C(=O)N[C@H](Cc2ccccc2)C1=O)C(=O)c1noc(Cc2cccc(C(F)(F)F)c2)n1` [CE2141, 5-(R)-Benzyl-2,4-imidazolidinedione-N-[1-(3-[5-(3-trifluoromethylbenzyl)-1,2,4-oxadiazolyl]carbonyl)-2-(S)-methylpropyl]acetamide], the Ki in series [1] turned out to be 64 nM. The “Plasma Levels (μM) 3 hr” value in series [2] amounted to 0.005 µM.

Take `Cc1cccc(Cc2nnc(C(=O)[C@@H](NC(=O)CN3C(=O)CN(CCN4CCOCC4)C(=O)[C@H]3Cc3ccccc3)C(C)C)o2)c1` [CE2162, 4-[1-(2-N-Morpholino)ethyl-3-(R)-benzylpiperazine-2,5-dione]-N-[1-(2-[5-(3-methylbenzyl)-1,3,4-oxadiazolyl]carbonyl)-2-(S)-methylpropyl]acetamide]: in series [1], the inhibition constant (Ki) came to 10.6 nM. The concentration at 3 h in series [2] came out at 0.025 µM.

In the case of `Cc1cccc(Cc2nnc(C(=O)[C@@H](NC(=O)CN(Cc3ccccc3)C(=O)c3ccc[nH]3)C(C)C)o2)c1` [CE2164, (Pyrrole-2-carbonyl)-N-(benzyl)glycyl-N-[1-(2-[5-(3-methylbenzyl)-1,3,4-oxadiazolyl]carbonyl)-2-(S)-methylpropyl]amide], the Ki in series [1] was 17 nM. Besides, the concentration at 3 h in series [2] is 0.034 µM.

With `CC(=O)N1c2ccccc2C[C@H]1C(=O)N[C@H](C(=O)c1nnc(Cc2cccc(C)c2)o1)C(C)C` [CE2165, N-Acetyl-2-(L)-(2,3-dihydro-1H-indole)-N-[1-(2-[5-(3-methylbenzyl) 1,3,4-oxadiazolyl]carbonyl)-2-(S)-methylpropyl]amide], in series [1], the Ki worked out at 2.6 nM. For the same molecule, the concentration at 3 h in series [2] turned out to be 0.067 µM.

With `CC(C)[C@H](NC(=O)[C@@H]1CCCN1C(=O)[C@@H](NS(C)(=O)=O)C(C)C)C(=O)c1noc(Cc2cccc(C(F)(F)F)c2)n1` [CE2172, Methylsulfonyl-L-valyl-N-[1-(3-[5-(3-trifluoromethylbenzyl)-1,2,4-oxadiazolyl]carbonyl)-2-(S)-methylpropyl]-L-prolinamide], in series [1], the inhibitory constant (Ki) worked out at 2.2 nM. Moreover, in series [2], the concentration at 3 h was 0.021 µM.

Consider `CC(C)[C@H](NC(=O)CN1C(=O)NC(=Cc2cccnc2)C1=O)C(=O)c1noc(Cc2cccc(C(F)(F)F)c2)n1` [CE2203, [4-(R)-(3-pyridylmethylene)]-2,5-imidazolidinedione-N-[1-(3-[5-(3-trifluoromethylbenzyl)-1,2,4-oxadiazolyl]carbonyl)-2-(S)-methylpropyl]acetamide], for which the Ki in series [1] was 79 nM. Further, in series [2], the “Plasma Levels (μM) 3 hr” value was 0.004 µM.

As for `Cc1cccc(Cc2nnc(C(=O)[C@@H](NC(=O)CN3C[C@@H](c4ccccc4)N(C(=O)OCc4ccccc4)CC3=O)C(C)C)o2)c1` [CE2204, 1-Benzyloxycarbonyl-(2-(R)-phenylpiperazin-5-one)-N-[-(2-[5-(3-methylbenzyl)-1,3,4-oxadiazolyl]carbonyl)-2-(S)-methylpropyl]acetamide], in series [1], the Ki is 7.4 nM. Moreover, the concentration at 3 h in series [2] was determined as 0.48 µM.

In the case of `CCc1cccc(Cc2nnc(C(=O)[C@@H](NC(=O)CN3C(=O)NC(=Cc4cccnc4)C3=O)C(C)C)o2)c1` [CE2205, [4-(R)-(3-pyridylmethylene)]-2,5-imidazolidinedione-N-[1-(2-[5-(3-ethylbenzyl)-1,3,4-oxadiazolyl]carbonyl)-2-(S)-methylpropyl]acetamide], the Ki in series [1] is 37 nM. Further, the “Plasma Levels (μM) 3 hr” value in series [2] is 0.475 µM.

Take `CC(C)OC(=O)N[C@H](C(=O)N1CCC[C@H]1C(=O)N[C@H](C(=O)c1noc(Cc2cccc(C(F)(F)F)c2)n1)C(C)C)C(C)C` [CE2207, Isopropytoxycarbonyl-L-valyl-N-[1-(3-[5-(3-trifluoromethylbenzyl)-1,2,4-oxadiazolyl]carbonyl)-2-(S)-methylpropyl]-L-prolinamide]: the Ki in series [1] was found to be 1.2 nM. In addition, the concentration at 3 h in series [2] stood at 0 µM.

`CC(C)[C@H](NC(=O)CN1C(=O)NC(c2ccncc2)(N2C(=O)CCC2=O)C1=O)C(=O)c1noc(Cc2cccc(C(F)(F)F)c2)n1` (stereo partly drawn) [CE2209, [4-(R,S)-(4-pyridyl)-4-(R,S)-N-succinimidyl]-2,5-imidazolidinedione-N-[1-(3-[5-(3-trifluoromethylbenzyl)-1,2,4-oxadiazolyl]carbonyl)-2-(S)-methylpropyl]acetamide]: the Ki in series [1] is 36.4 nM. Further, the “Plasma Levels (μM) 3 hr” value in series [2] is 0 µM.

For the molecule `Cc1cccc(Cc2nc(C(=O)C(NC(=O)CN3C(=O)C(N)N=C(c4ccccc4)c4ccccc43)C(C)C)no2)c1` [CE2221, (R,S)-3-Amino-2-oxo-5-phenyl-1,4-benzodiazepine-N-[1-(3-[5-(3-methylbenzyl)-1,2,4-oxadiazolyl]carbonyl)-2-(R,S)-methylpropyl]acetamide], the Ki in series [1] worked out at 34 nM.

Take `CC(C)[C@H](NC(=O)Cn1c(-c2ccc(F)cc2)ccc(N)c1=O)C(=O)c1nnc(Cc2ccc3c(c2)OCO3)o1` [CE2261]: the Ki in series [1] was determined as 0.36 nM.

With `Cc1cccc(Cc2nnc(C(=O)[C@@H](NC(=O)Cn3c(-c4cccs4)ncc(N)c3=O)C(C)C)o2)c1` [CE2262, 2-[5-Amino-6-oxo-2-thiophenyl-1,6-dihydro-1-pyrimidinyl]-N-[1-(2-[5-(3-methylbenzyl)-1,3,4-oxadiazolyl]carbonyl)-2-(S)-methylpropyl]acetamide], the Ki in series [1] came out at 0.42 nM.

As for `Cc1cccc(Cc2nnc(C(=O)[C@@H](NC(=O)Cn3c(-c4cccnc4)ncc(N)c3=O)C(C)C)o2)c1` [CE2263, 2-[5-Amino-6-oxo-2-(3-pyridyl)-1,6-dihydro-1-pyrimidinyl]-N-[1-(2-[5-(3-methylbenzyl)-1,3,4-oxadiazolyl]carbonyl)-2-(S)-methylpropyl]acetamide], in series [1], the Ki is 0.67 nM.

As for “(Benzyloxycarbonyl)-L-valyl-N-[1-(2-[5-(1-napthylenyl)-1,3,4-xadiazolyl]carbonyl)-2-(S)-methylpropyl]-L-prolinamide [CE2124]”, in series [1], the Ki is 0.033 nM.

Take “(R,S)-3-Amino-2-oxo-5-phenyl-1,4-(6-2′-chlorobenzodiazepine)-N-[1-(2-[5-phenyl-1,3,4-oxadiazolyl]carbonyl)-2-(R,S)-propyl]acetamide [CE2211]”: the Ki in series [1] is 348 nM.
